The source of these data is publication PMC6384781, “Design, Synthesis, Docking Studies and Monoamine Oxidase Inhibition of a Small Library of 1-acetyl- and 1-thiocarbamoyl-3,5-diphenyl-4,5-dihydro-(1H)-pyrazoles” (Molecules, 2019).

One experiment addresses T1, hMAO-B (Homo sapiens, UniProt P27338).
T1 construct: purchased Sigma-Aldrich; host or cells: insect cells (microsomes)
T1 sequence (P27338 1-520): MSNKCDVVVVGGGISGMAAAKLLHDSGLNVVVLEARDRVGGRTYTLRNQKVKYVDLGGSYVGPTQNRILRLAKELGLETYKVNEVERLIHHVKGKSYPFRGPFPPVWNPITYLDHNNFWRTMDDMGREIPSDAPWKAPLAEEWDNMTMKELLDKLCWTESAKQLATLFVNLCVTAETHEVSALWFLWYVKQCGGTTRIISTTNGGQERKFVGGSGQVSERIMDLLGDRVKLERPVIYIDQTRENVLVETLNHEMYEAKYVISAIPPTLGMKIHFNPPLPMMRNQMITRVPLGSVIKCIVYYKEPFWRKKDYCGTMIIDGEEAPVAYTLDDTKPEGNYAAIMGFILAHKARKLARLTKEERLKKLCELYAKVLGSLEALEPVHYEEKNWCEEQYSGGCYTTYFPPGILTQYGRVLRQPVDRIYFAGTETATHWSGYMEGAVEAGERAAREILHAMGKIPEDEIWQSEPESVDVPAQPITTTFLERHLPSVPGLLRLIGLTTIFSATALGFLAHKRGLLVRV
Briefly: hMAO-B inhibition, Amplex Red fluorometric assay with kynuramine substrate. The format is biochemical. Conditions: for SI (selectivity index for the hMAO-B isoform): ratio IC50(hMAO-A)/IC50(hMAO-B), SI > 1 = MAO-B selective; for IC50: recombinant hMAO-B, kynuramine 50 µM, mean ± SD of triplicate, max tested 100 µM. The protocol:
(§1) The synthesized compounds P1–P18 were evaluated as hMAO inhibitors using the recombinant hMAOs as enzyme sources and kynuramine as substrate. A fluorometric method based on the Amplex® Red reagent (λex = 560 nm; λem = 590 nm) was used to measure hMAO activity. In this horseradish peroxidase-linked assay, Amplex® Red reacts with hydrogen peroxide that is produced by the MAO catalytic cycle to yield a fluorescent product, resorufin [28]. By thus recording the MAO-catalyzed formation of hydrogen peroxide in the presence of different concentrations of a test inhibitor, sigmoidal plots of enzyme activity versus the logarithm of inhibitor concentration were constructed from which IC50 values were estimated (GraphPad Prism 5). All IC50 values were measured in triplicate and are expressed as the mean ± standard deviation (SD). The inhibitory activities of compounds P1–P18 are summarized in Table 1 along with selectivity index (SI) values which are the ratio of IC50(hMAO-A)/IC50(hMAO-B). SI < 1 indicates selectivity for MAO-A, whereas SI > 1 indicates selectivity for the MAO-B isoform.
(§2) Microsomes from insect cells expressing recombinant hMAO-A or hMAO-B (5 mg protein/mL) served as enzyme sources, and were pre-aliquoted and stored at −70 °C. All enzymatic reactions were carried out to a final volume of 200 µL in black 96-well microtiter plates (Corning). Potassium phosphate buffer (100 mM, pH 7.4, made isotonic with KCl) served as reaction solvent. The reactions contained kynuramine (50 µM), various concentrations of the test inhibitor (0.003–100 μM), horseradish peroxidase (1 unit/mL) and Amplex® Red (200 µM). Stock solutions of the test inhibitors were prepared in DMSO and added to the reactions to yield a final concentration of 4% (v/v) DMSO. The reactions were initiated with the addition of hMAO-A (0.0075 mg protein/mL) or hMAO-B (0.015 mg protein/mL), and incubated at 37 °C for 20 min in a convection oven. At endpoint, the reactions were terminated with the addition of 10 μL pargyline (20 mM) and 10 μL (R)-deprenyl (5 mM) for hMAO-A and hMAO-B, respectively. The concentrations of resorufin in the reactions were determined by fluorescence spectrophotometry (λex = 560 nm, λem = 590 nm). Resorufin was quantitated with a linear calibration curve, which was constructed from standard solutions containing hydrogen peroxide (0.05–1.6 µM). Each standard was prepared to a final volume of 200 μL in potassium phosphate buffer and also contained horseradish peroxidase (1 unit/mL), Amplex® Red (200 µM), 4% DMSO as co-solvent, 10 μL pargyline (20 mM) for hMAO-A and 10 μL (R)-deprenyl (5 mM) for hMAO-B. The IC50 values were determined by constructing sigmoidal curves of MAO catalytic activity versus the logarithm of inhibitor concentration. For this purpose, the one site competition model incorporated into the Prism 5 software package (GraphPad, San Diego, CA, USA) was used. All experiments were carried out in triplicate and the IC50 values are expressed as mean ± standard deviation (SD).

The target in a further experiment is T2, hMAO-A (Homo sapiens, UniProt P21397).
T2 construct: purchased Sigma-Aldrich; host or cells: insect cells (microsomes)
T2 sequence (P21397 1-527): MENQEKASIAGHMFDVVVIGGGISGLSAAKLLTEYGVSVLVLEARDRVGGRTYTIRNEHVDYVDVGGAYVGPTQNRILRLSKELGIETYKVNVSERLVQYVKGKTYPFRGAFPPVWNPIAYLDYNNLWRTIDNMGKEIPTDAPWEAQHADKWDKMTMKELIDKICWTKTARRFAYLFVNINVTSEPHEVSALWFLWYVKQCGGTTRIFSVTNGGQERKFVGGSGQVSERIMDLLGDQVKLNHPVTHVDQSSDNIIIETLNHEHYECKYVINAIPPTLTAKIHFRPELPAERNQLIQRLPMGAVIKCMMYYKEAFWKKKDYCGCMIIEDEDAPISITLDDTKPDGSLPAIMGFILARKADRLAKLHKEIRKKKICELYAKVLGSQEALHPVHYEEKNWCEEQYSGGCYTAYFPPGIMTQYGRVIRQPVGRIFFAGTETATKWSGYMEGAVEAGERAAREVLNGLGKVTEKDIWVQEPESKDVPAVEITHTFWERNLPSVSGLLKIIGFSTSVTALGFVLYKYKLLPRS
Briefly: hMAO-A inhibition, Amplex Red fluorometric assay with kynuramine substrate. Type of experiment: biochemical. Conditions: for fold difference of hMAO-A inhibition, (R)-enantiomer versus (S)-enantiomer: (R)- compared with (S)-enantiomer of the same compound. The protocol:
as §1, §2

[1] abbreviates: recombinant hMAO-A, kynuramine 50 µM, mean ± SD of triplicate, max tested 100 µM.

Broadly, the IC50 is the midpoint of a concentration-inhibition curve. Turning to `COc1ccc(C2=NN(C(N)=S)[C@@H](c3ccccc3)C2)cc1` [(R)-P1], on hMAO-B, the “SI (selectivity index for the hMAO-B isoform)” value is given as below 0.51 and the IC50 was above 100 µM. For the same molecule, the IC50 at hMAO-A (setting [1]) was found to be 50.6 ± 2.67 µM.

Take `CCOc1ccc(C2=NN(C(N)=S)[C@@H](c3ccccc3)C2)cc1` [(R)-P2]: on hMAO-B, the “SI (selectivity index for the hMAO-B isoform)” value was below 0.34 and the IC50 was above 100 µM. Further, the IC50 at hMAO-A (setting [1]) came out at 33.9 ± 1.29 µM.

As for `CCCOc1ccc(C2=NN(C(N)=S)[C@@H](c3ccccc3)C2)cc1` [(R)-P3], the “SI (selectivity index for the hMAO-B isoform)” value on hMAO-B is given as 2.89. Moreover, the half-inhibitory concentration (IC50) on hMAO-B amounted to 2.77 ± 0.39 µM; at hMAO-A (setting [1]), 8 ± 0.83 µM.

For `CCCCOc1ccc(C2=NN(C(N)=S)[C@@H](c3ccccc3)C2)cc1` [(R)-P4], at hMAO-B, the “SI (selectivity index for the hMAO-B isoform)” value turned out to be 9.55 and the IC50 turned out to be 0.38 ± 0.06 µM. For the same molecule, the “fold difference of hMAO-A inhibition, (R)-enantiomer versus (S)-enantiomer” value at hMAO-A is 10 fold. Besides, on hMAO-A (setting [1]), the IC50 turned out to be 3.63 ± 0.5 µM.

Regarding `CCCCCOc1ccc(C2=NN(C(N)=S)[C@@H](c3ccccc3)C2)cc1` [(R)-P5], the “fold higher hMAO-B inhibitory activity, (R)-enantiomer versus (S)-enantiomer” value at hMAO-B ((R)- compared with (S)-enantiomer of the same compound) worked out at 6 fold. For the same molecule, the “SI (selectivity index for the hMAO-B isoform)” value on hMAO-B amounted to 6.89. Also, the IC50 at hMAO-B came to 0.44 ± 0.028 µM; on hMAO-A (setting [1]), 3.03 ± 0.6 µM. The “fold difference of hMAO-A inhibition, (R)-enantiomer versus (S)-enantiomer” value on hMAO-A was 18 fold.

With `COc1ccc(C2=NN(C(N)=S)[C@H](c3ccccc3)C2)cc1` [(S)-P1], at hMAO-B, the “SI (selectivity index for the hMAO-B isoform)” value is listed as below 0.47 and the IC50 is above 100 µM. Besides, the IC50 on hMAO-A (setting [1]) worked out at 46.6 ± 2.62 µM.

For `CCOc1ccc(C2=NN(C(N)=S)[C@H](c3ccccc3)C2)cc1` [(S)-P2], at hMAO-B, the “SI (selectivity index for the hMAO-B isoform)” value is reported as below 0.32 and the IC50 is above 100 µM. Besides, the IC50 on hMAO-A (setting [1]) stood at 32.3 ± 4.46 µM.

With `CCCOc1ccc(C2=NN(C(N)=S)[C@H](c3ccccc3)C2)cc1` [(S)-P3], at hMAO-B, the “SI (selectivity index for the hMAO-B isoform)” value was determined as 0.23. Also, the half-maximal inhibitory concentration (IC50) at hMAO-B worked out at 42.5 ± 2.61 µM; at hMAO-A (setting [1]), 9.59 ± 0.83 µM.

On to `CCCCOc1ccc(C2=NN(C(N)=S)[C@H](c3ccccc3)C2)cc1` [(S)-P4], for which, on hMAO-B, the “SI (selectivity index for the hMAO-B isoform)” value amounted to 7.78 and the IC50 is 5.03 ± 0.88 µM. Moreover, the IC50 on hMAO-A (setting [1]) came to 39.2 ± 2.15 µM.

For `CCCCCOc1ccc(C2=NN(C(N)=S)[C@H](c3ccccc3)C2)cc1` [(S)-P5], on hMAO-B, the “SI (selectivity index for the hMAO-B isoform)” value is recorded as 19.77 and the IC50 came out at 2.79 ± 0.87 µM. For the same molecule, the IC50 on hMAO-A (setting [1]) came out at 55.2 ± 2.72 µM.

On to `CC(C)=CCCC(C)=CCOc1ccc(C2=NN(C(N)=S)C(c3ccccc3)C2)cc1` (stereo not shown) [Compound P6, 3-(4-((3,7-dimethylocta-2,6-dien-1-yl)oxy)phenyl)-5-phenyl-4,5-dihydro-1H-pyrazole-1-carbothioamide], for which, on hMAO-B, the “SI (selectivity index for the hMAO-B isoform)” value was above 1.85 and the IC50 turned out to be 54.1 ± 7.54 µM. Moreover, on hMAO-A (setting [1]), the 50% inhibitory concentration (IC50) is above 100 µM and the “IC50 hMAO-A” value is recorded as “ineffective”.

Turning to `CC(=O)N1N=C(c2ccc(OCC=C(C)C)cc2)CC1c1ccccc1` (stereo not shown) [Compound P8], the “SI (selectivity index for the hMAO-B isoform)” value on hMAO-B is reported as above 43.67. For the same molecule, the IC50 on hMAO-B is 2.29 ± 0.42 µM; at hMAO-A (setting [1]), above 100 µM.

Take `CC(=O)N1N=C(c2ccc(OCC=C(C)C)cc2)CC1c1ccc(C)cc1` (stereo not shown) [Compound P11, 1-(3-(4-((3-methylbut-2-en-1-yl)oxy)phenyl)-5-(p-tolyl)-4,5-dihydro-1H-pyrazol-1-yl)ethan-1-one]: at hMAO-B, the “SI (selectivity index for the hMAO-B isoform)” value is above 8.19 and the IC50 is 12.2 ± 0.71 µM. Further, the IC50 on hMAO-A (setting [1]) is above 100 µM.

In the case of `CC(=O)N1N=C(c2ccc(OCC=C(C)C)cc2)CC1c1ccc(Cl)cc1` (stereo not shown) [Compound P15, 1-(5-(4-chlorophenyl)-3-(4-((3-methylbut-2-en-1-yl)oxy)phenyl)-4,5-dihydro-1H-pyrazol-1-yl)ethan-1-one], at hMAO-B, the “SI (selectivity index for the hMAO-B isoform)” value is reported as 1.11 and the IC50 amounted to 11 ± 3.56 µM. Besides, on hMAO-A (setting [1]), the IC50 worked out at 12.1 ± 0.14 µM.
